# Assays:
# HDAC6 [1] = molecular target: T1, HDAC6 (Homo sapiens (Human), UniProt Q9UBN7); test: IC50 assay by Nanosyn (Caliper microfluidics mobility shift detection); assay type: biochemical
# [2] = tested on: Human iPSC-derived neural progenitor cells; test: Acetylation level assay (Western blot); assay type: cell-based; conditions: 6 h at 37° C.; for amount of cellular acetyl-α-Tubulin: other compounds 10 μM
# HDAC6 [3] = molecular target: HDAC6 (Rattus norvegicus (Rat), UniProt A0A8I6GM68); test: Autoradiography competition with radiolabeled Example 2 on rat brain slices; assay type: binding, Sprague-Dawley rat; conditions: Tubastatin A at 100 μM
# Description: Sagittal slices of Sprague-Dawley rat brains were sectioned (10 μm) with a cryostat (Thermo Scientific HM550) and mounted onto ColorFrost Plus microscope slides (Fisher Scientific 12-550-18) and stored at −20° C. […] After 15 min, 50 μCi of the radiolabeled compound of Example 2 was added to each bath. After 15 minutes, all slides were washed by dipping 10× into buffer and subsequently submerged in 50 mL baths of buffer at 4° C. for 5 minutes. The slides were dried at 35° C. in a vacuum chamber. A phosphorus screen (Perkin Elmer 7001723) was exposed with the slides for 45 minutes and subsequently imaged with a Cyclone Plus Storage Phosphor (Perkin Elmer) detector. ImageJ was used to apply a Gaussian blur (3.0 radius) smoothing and a lookup table (Royal) with equivalent thresholds for brightness was applied. Raw intensity values from gray and white matter were quantified with the ImageJ measurement tool.
# [4] = Brain penetrance comparison; conditions: in vivo
# HDAC4 [5] = molecular target: T2, HDAC4 (Homo sapiens (Human), UniProt P56524); test: IC50 assay by Nanosyn (Caliper microfluidics mobility shift detection); assay type: biochemical; conditions: IC50 measured by Nanosyn
# T2 sequence (P56524 whole entry): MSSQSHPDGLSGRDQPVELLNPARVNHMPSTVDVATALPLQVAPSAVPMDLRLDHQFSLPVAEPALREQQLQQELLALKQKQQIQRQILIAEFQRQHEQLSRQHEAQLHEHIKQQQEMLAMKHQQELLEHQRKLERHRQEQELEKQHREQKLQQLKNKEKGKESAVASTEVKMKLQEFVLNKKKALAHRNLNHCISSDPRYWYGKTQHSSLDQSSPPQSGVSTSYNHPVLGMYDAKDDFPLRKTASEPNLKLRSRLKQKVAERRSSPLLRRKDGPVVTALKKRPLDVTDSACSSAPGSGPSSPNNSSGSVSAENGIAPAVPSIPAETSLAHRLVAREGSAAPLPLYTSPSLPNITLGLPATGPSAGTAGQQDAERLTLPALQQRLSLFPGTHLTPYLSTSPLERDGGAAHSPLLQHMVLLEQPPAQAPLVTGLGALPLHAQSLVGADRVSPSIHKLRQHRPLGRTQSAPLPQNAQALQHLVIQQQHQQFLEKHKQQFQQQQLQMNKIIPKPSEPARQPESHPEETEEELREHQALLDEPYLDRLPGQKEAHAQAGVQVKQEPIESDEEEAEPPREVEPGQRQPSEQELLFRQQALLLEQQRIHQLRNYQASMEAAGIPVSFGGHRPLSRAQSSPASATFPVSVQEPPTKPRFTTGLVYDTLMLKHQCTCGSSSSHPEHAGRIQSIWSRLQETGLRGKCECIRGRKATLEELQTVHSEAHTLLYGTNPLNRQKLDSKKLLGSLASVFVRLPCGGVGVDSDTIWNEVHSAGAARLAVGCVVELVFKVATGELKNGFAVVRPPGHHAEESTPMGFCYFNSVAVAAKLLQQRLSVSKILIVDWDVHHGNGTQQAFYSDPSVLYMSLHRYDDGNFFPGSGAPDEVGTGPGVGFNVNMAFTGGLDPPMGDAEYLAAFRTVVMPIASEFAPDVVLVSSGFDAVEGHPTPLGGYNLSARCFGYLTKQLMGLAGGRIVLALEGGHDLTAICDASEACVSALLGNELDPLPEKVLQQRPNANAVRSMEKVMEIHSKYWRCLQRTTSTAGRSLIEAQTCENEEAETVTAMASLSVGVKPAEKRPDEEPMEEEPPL
# HDAC3 [6] = molecular target: T3, HDAC3 (Homo sapiens (Human), UniProt O15379); test: IC50 assay, BPS Biosciences fluorescence assay; assay type: biochemical; conditions: BPS Biosciences fluorescence assay
# HDAC9 [7] = molecular target: T4, HDAC9 (Homo sapiens (Human), UniProt Q9UKV0); test: IC50 assay, BPS Biosciences fluorescence assay; assay type: biochemical
# T4 sequence (Q9UKV0 whole entry): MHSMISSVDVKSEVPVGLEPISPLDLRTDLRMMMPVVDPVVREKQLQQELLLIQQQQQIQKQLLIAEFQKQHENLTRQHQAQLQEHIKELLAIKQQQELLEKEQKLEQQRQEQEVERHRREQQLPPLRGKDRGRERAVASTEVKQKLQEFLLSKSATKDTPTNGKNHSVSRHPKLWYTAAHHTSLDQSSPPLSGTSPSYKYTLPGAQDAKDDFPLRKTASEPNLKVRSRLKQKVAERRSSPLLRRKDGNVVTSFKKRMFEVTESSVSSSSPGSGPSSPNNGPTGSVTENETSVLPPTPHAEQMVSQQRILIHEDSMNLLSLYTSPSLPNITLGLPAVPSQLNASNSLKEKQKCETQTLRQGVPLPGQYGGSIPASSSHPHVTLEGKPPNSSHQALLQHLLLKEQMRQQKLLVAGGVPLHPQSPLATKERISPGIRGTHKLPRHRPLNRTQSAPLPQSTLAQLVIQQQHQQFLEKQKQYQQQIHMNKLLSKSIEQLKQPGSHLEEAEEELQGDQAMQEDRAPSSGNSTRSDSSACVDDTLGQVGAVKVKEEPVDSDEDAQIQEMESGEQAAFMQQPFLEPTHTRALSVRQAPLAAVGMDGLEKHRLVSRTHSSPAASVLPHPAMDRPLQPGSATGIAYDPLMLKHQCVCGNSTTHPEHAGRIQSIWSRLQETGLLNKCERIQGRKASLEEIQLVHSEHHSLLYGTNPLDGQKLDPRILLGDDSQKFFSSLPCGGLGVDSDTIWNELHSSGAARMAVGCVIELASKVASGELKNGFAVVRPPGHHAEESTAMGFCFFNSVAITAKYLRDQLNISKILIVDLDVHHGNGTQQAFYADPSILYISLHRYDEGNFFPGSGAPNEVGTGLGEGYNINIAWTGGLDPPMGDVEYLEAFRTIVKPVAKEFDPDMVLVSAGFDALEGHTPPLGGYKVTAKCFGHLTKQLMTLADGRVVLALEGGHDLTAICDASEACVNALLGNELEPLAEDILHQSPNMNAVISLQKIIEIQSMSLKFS
# HDAC5 [8] = molecular target: T5, HDAC5 (Homo sapiens (Human), UniProt Q9UQL6); test: IC50 assay, BPS Biosciences fluorescence assay; assay type: biochemical
# HDAC10 [9] = molecular target: T6, HDAC10 (Homo sapiens (Human), UniProt Q969S8); test: IC50 assay, BPS Biosciences fluorescence assay; assay type: biochemical; conditions: BPS Biosciences fluorescence assay
# T6 sequence (Q969S8 whole entry): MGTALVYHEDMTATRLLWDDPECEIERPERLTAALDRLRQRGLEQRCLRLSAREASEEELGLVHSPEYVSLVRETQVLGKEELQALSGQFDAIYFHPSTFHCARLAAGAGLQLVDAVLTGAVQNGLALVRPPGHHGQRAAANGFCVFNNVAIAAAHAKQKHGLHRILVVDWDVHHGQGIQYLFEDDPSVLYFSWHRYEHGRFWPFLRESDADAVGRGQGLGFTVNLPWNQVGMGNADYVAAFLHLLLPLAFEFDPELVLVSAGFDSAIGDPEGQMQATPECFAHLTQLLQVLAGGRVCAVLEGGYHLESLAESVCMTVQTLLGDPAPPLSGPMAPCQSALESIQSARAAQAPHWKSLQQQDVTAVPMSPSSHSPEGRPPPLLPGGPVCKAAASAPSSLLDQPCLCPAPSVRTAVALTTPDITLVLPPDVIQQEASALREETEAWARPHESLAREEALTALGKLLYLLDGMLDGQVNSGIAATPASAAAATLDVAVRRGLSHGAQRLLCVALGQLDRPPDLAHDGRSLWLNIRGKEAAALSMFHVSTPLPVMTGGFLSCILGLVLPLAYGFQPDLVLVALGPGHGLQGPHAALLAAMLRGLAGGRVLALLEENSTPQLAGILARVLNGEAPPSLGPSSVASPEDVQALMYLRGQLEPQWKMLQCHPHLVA
# HDAC11 [10] = molecular target: T7, HDAC11 (Homo sapiens (Human), UniProt Q96DB2); test: IC50 assay, BPS Biosciences fluorescence assay; assay type: biochemical
# T7 sequence (Q96DB2 whole entry): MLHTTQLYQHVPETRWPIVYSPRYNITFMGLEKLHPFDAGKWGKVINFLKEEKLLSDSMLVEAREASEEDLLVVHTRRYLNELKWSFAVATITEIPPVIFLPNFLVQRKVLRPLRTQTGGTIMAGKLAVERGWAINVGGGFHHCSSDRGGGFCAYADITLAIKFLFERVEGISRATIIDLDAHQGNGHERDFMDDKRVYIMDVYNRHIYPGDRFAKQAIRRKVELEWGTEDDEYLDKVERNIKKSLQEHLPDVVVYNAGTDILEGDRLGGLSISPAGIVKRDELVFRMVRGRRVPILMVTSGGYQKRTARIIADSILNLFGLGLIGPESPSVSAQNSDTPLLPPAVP
# HDAC6 [11] = molecular target: T1, HDAC6; test: IC50 assay, BPS Biosciences fluorescence assay; assay type: biochemical
# HDAC1 [12] = molecular target: T8, HDAC1 (Homo sapiens (Human), UniProt Q13547); test: IC50 assay, BPS Biosciences fluorescence assay; assay type: biochemical; conditions: BPS Biosciences fluorescence assay
# HDAC7 [13] = molecular target: T9, HDAC7 (Homo sapiens (Human), UniProt Q8WUI4); test: IC50 assay, BPS Biosciences fluorescence assay; assay type: biochemical
# HDAC11 [14] = molecular target: T7, HDAC11; test: IC50 assay by Nanosyn (Caliper microfluidics mobility shift detection); assay type: biochemical; conditions: IC50 measured by Nanosyn
# HDAC4 [15] = molecular target: T2, HDAC4; test: IC50 assay, BPS Biosciences fluorescence assay; assay type: biochemical
# HDAC5 [16] = molecular target: T5, HDAC5; test: IC50 assay by Nanosyn (Caliper microfluidics mobility shift detection); assay type: biochemical; conditions: IC50 measured by Nanosyn
# HDAC8 [17] = molecular target: T10, HDAC8 (Homo sapiens (Human), UniProt Q9BY41); test: as above; assay type: biochemical; conditions: IC50 measured by Nanosyn
# T10 sequence (Q9BY41 whole entry): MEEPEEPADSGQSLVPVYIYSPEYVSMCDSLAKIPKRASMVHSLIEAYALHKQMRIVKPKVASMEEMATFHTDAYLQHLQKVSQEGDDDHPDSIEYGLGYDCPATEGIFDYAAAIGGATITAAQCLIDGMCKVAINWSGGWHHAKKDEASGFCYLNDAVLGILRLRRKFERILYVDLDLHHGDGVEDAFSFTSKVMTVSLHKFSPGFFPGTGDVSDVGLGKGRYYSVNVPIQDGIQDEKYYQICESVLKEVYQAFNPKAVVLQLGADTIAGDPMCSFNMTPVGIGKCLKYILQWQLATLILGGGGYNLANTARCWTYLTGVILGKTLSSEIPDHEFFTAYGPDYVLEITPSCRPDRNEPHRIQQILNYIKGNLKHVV
# HDAC2 [18] = molecular target: T11, HDAC2 (Homo sapiens (Human), UniProt Q92769); test: IC50 assay, BPS Biosciences fluorescence assay; assay type: biochemical; conditions: BPS Biosciences fluorescence assay
# HDAC3 [19] = molecular target: T3, HDAC3; test: IC50 assay by Nanosyn (Caliper microfluidics mobility shift detection); assay type: biochemical; conditions: IC50 measured by Nanosyn
# Description: (§1) IC50 measurements were conducted by BPS Biosciences (Table 1) or by Nanosyn (Table 1A) with an established fluorescence assay. […] A=Martinostat (Caliper (microfluidics mobility shift detection) by Nanosyn (same run, duplicates));
# HDAC1 [20] = molecular target: T8, HDAC1; test: as above; assay type: biochemical; conditions: IC50 measured by Nanosyn
# Description: as §1
# HDAC10 [21] = molecular target: T6, HDAC10; test: as above; assay type: biochemical; conditions: IC50 measured by Nanosyn
# Description: as §1
# HDAC2 [22] = molecular target: T11, HDAC2; test: as above; assay type: biochemical; conditions: IC50 measured by Nanosyn
# Description: as §1
# HDAC8 [23] = molecular target: T10, HDAC8; test: IC50 assay, BPS Biosciences fluorescence assay; assay type: biochemical
# HDAC7 [24] = molecular target: T9, HDAC7; test: IC50 assay by Nanosyn (Caliper microfluidics mobility shift detection); assay type: biochemical; conditions: IC50 measured by Nanosyn
# HDAC9 [25] = molecular target: T4, HDAC9; test: as above; assay type: biochemical; conditions: IC50 measured by Nanosyn
# PET/CT imaging in rats = assay type: in vivo, Sprague-Dawley rats
# Description: 8 male Sprague-Dawley rats (Charles River Laboratories) were used for PET imaging. […] For intravenous administration, a catheter with an extension line was placed in a lateral tail vein. Each animal received a bolus injection of either vehicle (1:1:8 DMSO/Tween80/saline) or blocking agent in solution (1 mg/kg, 1 mg/mL in 1:1:8 DMSO/Tween80/saline) immediately prior to injection of the radiotracer.
# After injection of a radiotracer bolus ([…] Example 2) a 90 min dynamic PET scan was acquired in pairs for all animals. PET scans were performed on a GammaMedica Triumph PET/CT/SPECT scanner, corrected for attenuation with a μ-map derived from the corresponding CT image, which was acquired immediately following the PET scan. The dynamic PET data was binned into 38 timeframes (8×15 s, 8×1 min, 10×2 min, 12×5) and reconstructed individually via an iterative MLEM (maximum likelihood expectation maximization) algorithm in 16 iterations.
# PET images were to the CT image acquired from the same animal using AMIDE Data sets were cropped and all further image analysis was conducted using PMOD 3.3 (PMOD Technologies, Zurich, Switzerland). For maximum consistency, the data were coregistered to the Schiffer Px Rat rat brain template and data was derived from a whole brain VOI (volumes of interest) for time activity curves.
# [26] = BPS Biosciences fluorescence assay
# T1 sequence (Q9UBN7 whole entry): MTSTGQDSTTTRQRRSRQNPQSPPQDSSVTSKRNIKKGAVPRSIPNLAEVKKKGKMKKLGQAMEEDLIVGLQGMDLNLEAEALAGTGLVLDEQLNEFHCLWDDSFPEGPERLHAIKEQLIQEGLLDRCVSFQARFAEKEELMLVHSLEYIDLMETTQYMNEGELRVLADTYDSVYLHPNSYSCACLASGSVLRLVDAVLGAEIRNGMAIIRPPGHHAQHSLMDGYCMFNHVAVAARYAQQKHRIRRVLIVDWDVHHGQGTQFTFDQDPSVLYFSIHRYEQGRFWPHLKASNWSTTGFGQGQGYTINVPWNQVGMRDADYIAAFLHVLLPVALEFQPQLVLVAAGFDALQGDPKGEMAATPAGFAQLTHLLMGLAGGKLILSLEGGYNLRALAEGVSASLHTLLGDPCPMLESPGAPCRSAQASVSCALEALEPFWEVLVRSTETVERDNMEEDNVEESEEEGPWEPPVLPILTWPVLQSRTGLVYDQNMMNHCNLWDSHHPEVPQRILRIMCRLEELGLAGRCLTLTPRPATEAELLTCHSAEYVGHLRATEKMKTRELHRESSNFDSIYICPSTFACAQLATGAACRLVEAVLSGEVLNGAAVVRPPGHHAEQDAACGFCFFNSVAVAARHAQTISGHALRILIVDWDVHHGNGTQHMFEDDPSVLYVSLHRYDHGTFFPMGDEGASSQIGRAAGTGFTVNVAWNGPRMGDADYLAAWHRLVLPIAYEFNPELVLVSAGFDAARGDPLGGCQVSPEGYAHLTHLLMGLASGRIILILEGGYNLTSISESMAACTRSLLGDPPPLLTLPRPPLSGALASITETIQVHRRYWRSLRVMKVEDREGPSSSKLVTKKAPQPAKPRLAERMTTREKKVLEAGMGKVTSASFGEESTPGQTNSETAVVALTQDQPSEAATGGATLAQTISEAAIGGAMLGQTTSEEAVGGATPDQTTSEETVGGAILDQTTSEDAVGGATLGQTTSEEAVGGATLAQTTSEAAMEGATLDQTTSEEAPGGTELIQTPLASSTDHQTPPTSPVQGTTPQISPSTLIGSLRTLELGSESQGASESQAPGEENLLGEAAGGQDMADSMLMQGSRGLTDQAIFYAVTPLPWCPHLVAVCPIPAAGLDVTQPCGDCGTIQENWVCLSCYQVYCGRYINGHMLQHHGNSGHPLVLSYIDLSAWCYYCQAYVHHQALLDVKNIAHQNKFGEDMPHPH
compound,measurement,setting,value
"CCC(N(C)Cc1ccc(C(=O)NO)cc1)C12CC3CC(CC(C3)C1)C2 (centres unmarked) [Example 22, 4-(((1-((3r,5r,7r)-adamantan-1-yl)propyl)(methyl)amino)methyl)-N-hydroxybenzamide]",IC50,HDAC6 [1]; Nanosyn (Table 1A),121 nM
"O=C(NO)c1ccc(CNCC23CC4CC(CC(C4)C2)C3)cc1 [Example 17, 4-(((((3r,5r,7r)-adamantan-1-yl)methyl)amino)methyl)-N-hydroxybenzamide]",IC50,HDAC6 [1]; Nanosyn (Table 1A),35 nM
"CN(Cc1ccc(C(=O)NO)cc1)CC12CC3CC(CC(C3)C1)C2 [Example 12, 4-(((((3r,5r,7r)-adamantan-1-yl)methyl)(methyl)amino)methyl)-N-hydroxybenzamide]",IC50,HDAC6 [1]; Nanosyn (Table 1A),81 nM
CN1CCc2c(c3ccccc3n2Cc2ccc(C(=O)NO)cc2)C1 [Tubastatin A],Histone acetylation (H3K9 and H4K12),[2]; 10 μM,remained unaltered
same,amount of cellular acetyl-α-Tubulin,[2]; ACY1215 5 μM,increased
same,amount of bound radioactivity (radiolabeled Example 2) on rat brain slices,HDAC6 [3],reduce the amount of bound radioactivity to the same background as 10 μM Example 1
same,Brain-penetrant?,[4],+/−
"O=C(CCCCCCNC(=O)c1cnc(N(c2ccccc2)c2ccccc2)nc1)NO [ACY-1215, ricolinostat]",acetylation of H4K12,[2]; ACY1215 5 μM,significantly increased
same,amount of cellular acetyl-α-Tubulin,[2]; ACY1215 5 μM,increased
same,Brain-penetrant?,[4],−
"CCCCCN(Cc1ccc(C(=O)NO)cc1)CC1CCC2CC1C2(C)C (centres unmarked) [Example 24, 4-((((6,6-dimethylbicyclo[3.1.1]heptan-2-yl)methyl)(pentyl)amino)methyl)-N-hydroxybenzamide]",IC50,HDAC6 [1]; Nanosyn (Table 1A),1190 nM
"O=C(NO)c1ccc(CNCC23CC4CC(CC(C4)C2)C3)nc1 [Example 13, 6-((((adamantan-1-yl)methyl)amino)methyl)-N-hydroxynicotinamide]",IC50,HDAC6 [1]; Nanosyn (Table 1A),26.7 nM
"O=C(NO)c1ccc(CNCC23CC4CC(CC(C4)C2)C3)c(Cl)c1 [Example 14, 4-((((adamantan-1-yl)methyl)amino)methyl)-3-chloro-N-hydroxybenzamide]",IC50,HDAC6 [1]; Nanosyn (Table 1A),74.8 nM
"CN(Cc1ccc(/C=C/C(=O)NO)cc1)CC12CC3CC(CC(C3)C1)C2 [Martinostat, martinostat]",IC50,HDAC4 [5],240 nM
same,IC50,HDAC3 [6],7.1 nM
same,IC50,HDAC6 [1]; IC50 measured by Nanosyn,1.8 nM
same,IC50,HDAC9 [7]; [26],> 1000 nM
same,inhibition at 1 µM,"HDAC9 [7]; at 1 μM, BPS Biosciences, read-out: HDAC9 Percentage Inhibition",12%
same,IC50,HDAC5 [8],980 nM
same,IC50,HDAC10 [9],8.9 nM
same,IC50,HDAC11 [10]; [26],> 1000 nM
same,inhibition at 1 µM,"HDAC11 [10]; at 1 μM, BPS Biosciences, read-out: HDAC11 Percentage Inhibition",17%
same,IC50,HDAC6 [11],48 nM
same,IC50,HDAC1 [12],6.2 nM
same,IC50,HDAC7 [13],> 1000 nM
same,IC50,HDAC11 [14],> 1000 nM
same,IC50,HDAC4 [15]; [26],> 1000 nM
same,inhibition at 1 µM,"HDAC4 [15]; at 1 μM, BPS Biosciences, read-out: HDAC4 Percentage Inhibition",39%
same,IC50,HDAC5 [16],75 nM
same,IC50,HDAC8 [17],750 nM
same,IC50,HDAC2 [18],22 nM
same,IC50,HDAC3 [19],0.3 nM
same,IC50,HDAC1 [20],1.2 nM
same,IC50,HDAC10 [21],2 nM
same,IC50,HDAC2 [22],4 nM
same,IC50,HDAC8 [23],> 1000 nM
same,IC50,HDAC7 [24],> 1000 nM
same,IC50,HDAC9 [25],> 1000 nM
"O=C(NO)c1ccc(CNCC23CC4CC(CC(C4)C2)C3)c(Br)c1 [Example 15, 4-((((adamantan-1-yl)methyl)amino)methyl)-3-bromo-N-hydroxybenzamide]",IC50,HDAC6 [1]; Nanosyn (Table 1A),59.9 nM
"CN(Cc1ccc(C(=O)NO)cc1[18F])CC12CC3CC(CC(C3)C1)C2 [Example 2, 4-((((Adamantan-1-yl)methyl)(methyl)amino)methyl)-3-[^18F]fluoro-N-hydroxybenzamide]",brain uptake and retention,"PET/CT imaging in rats; radiotracer, PET",excellent
same,off-rate in preclinical PET,"PET/CT imaging in rats; rat, in vivo",slow
